# Laboratory results as given in patent publication US8927717B1, “Thiochromeno[2,3-c]quinolin-12-one derivatives, preparation method and application thereof” (National Defense Medical Center, priority 2014, dated 2015).
# Key:
# Format in all cases: cell-based
# NCI-H226 = details: NCI-H226
# KM12 = assay: cells; details: KM12
# MOLT-4 = details: MOLT-4
# RXF 393 = details: RXF 393
# MALME-3M = details: MALME-3M
# UO-31 = details: UO-31
# UACC-62 = details: UACC-62
# SK-MEL-28 = details: SK-MEL-28
# COLO 205 = details: COLO 205
# OVCAR-8 = details: OVCAR-8
# HS 578T = details: HS 578T
# 60 cancer cell lines = assay: NCI 60-cell screen, SRB, whole panel (mean, delta, range)
# NCI-H522 = details: NCI-H522
# SK-OV-3 = details: SK-OV-3
# RPMI-8226 = details: RPMI-8226
# K-562 = details: K-562
# MDA-MB-435 = details: MDA-MB-435
# 786-0 = details: 786-0
# A498 = details: A498
# MDA-MB-231/ATCC = details: MDA-MB-231/ATCC
# NCI-H23 = details: NCI-H23
# BT-549 = details: BT-549
# HOP-62 = details: HOP-62
# DU-145 = details: DU-145
# LOX IMVI = details: LOX IMVI
# SNB-75 = details: SNB-75
# NCI-H460 = details: NCI-H460
# U251 = details: U251
# SF-268 = details: SF-268
# SNB-19 = details: SNB-19
# HT29 = details: HT29
# MCF7 = details: MCF7
# A549/ATCC = details: A549/ATCC
# SK-MEL-5 = details: SK-MEL-5
# HL-60(TB) = details: HL-60(TB); 10^−5 molar
# PC-3 = details: PC-3
# CCRF-CEM = details: CCRF-CEM
# OVCAR-5 = details: OVCAR-5
# TK-10 = details: TK-10
# [1] = Homo sapiens, five dose, read-out: LC50 (the source's name)
smiles,measurement,setting,value
"O=c1c2cc(Cl)ccc2sc2c(NCCCNCCO)nc3ccccc3c12 [Compound N19, 10-Chloro-6-((3-((2-hydroxyethyl)amino)propyl)amino)-12H-thiochromeno[2,3-c]quinolin-12-one]",GI50,"NCI-H226; Homo sapiens, five dose",1.9 µM
same,Growth percent,NCI-H226; 10^−5 molar,86.75%
same,TGI,NCI-H226; five dose,4.46 µM
same,GI50,"KM12; Homo sapiens, five dose",1.67 µM
same,Growth percent,KM12; 10^−5 molar,−83.29%
same,TGI,KM12; five dose,3.31 µM
same,GI50,"MOLT-4; Homo sapiens, five dose",1.88 µM
same,Growth percent,MOLT-4; 10^−5 molar,−47.57%
same,GI50,"RXF 393; Homo sapiens, five dose",1.64 µM
same,Growth percent,RXF 393; 10^−5 molar,43.67%
same,TGI,RXF 393; five dose,3.20 µM
same,GI50,"MALME-3M; Homo sapiens, five dose",2.15 µM
same,Growth percent,MALME-3M; 10^−5 molar,−34.30%
same,TGI,MALME-3M; five dose,4.33 µM
same,GI50,"UO-31; Homo sapiens, five dose",1.36 µM
same,CC50,UO-31; [1],6.35 µM
same,Growth percent,UO-31; 10^−5 molar,24.54%
same,TGI,UO-31; five dose,2.94 µM
same,GI50,"UACC-62; Homo sapiens, five dose",1.81 µM
same,CC50,UACC-62; [1],6.39 µM
same,Growth percent,UACC-62; 10^−5 molar,−77.63%
same,TGI,UACC-62; five dose,3.40 µM
same,GI50,"SK-MEL-28; Homo sapiens, five dose",1.89 µM
same,Growth percent,SK-MEL-28; 10^−5 molar,−94.33%
same,TGI,SK-MEL-28; five dose,3.56 µM
same,Growth percent,COLO 205; 10^−5 molar,−87.17%
same,TGI,COLO 205; five dose,3.37 µM
same,GI50,"COLO 205; Homo sapiens, five dose",1.63 µM
same,GI50,"OVCAR-8; Homo sapiens, five dose",1.75 µM
same,Growth percent,OVCAR-8; 10^−5 molar,9.89%
same,TGI,OVCAR-8; five dose,3.32 µM
same,Growth percent,HS 578T; 10^−5 molar,64.69%
same,TGI,HS 578T; five dose,3.53 µM
same,GI50,"HS 578T; Homo sapiens, five dose",1.29 µM
same,CC50,HS 578T; [1],9.64 µM
same,GI50,"60 cancer cell lines; 60 cell, mean over panel, five dose",1.66 µM
same,CC50,"60 cancer cell lines; 60 cell, mean over panel, five dose, read-out: LC50, Mean",9.55 µM
same,"Growth percent, Delta","60 cancer cell lines; delta over panel, 10^−5 molar",75.63%
same,"Growth percent, Mean","60 cancer cell lines; mean over panel, 10^−5 molar",−21.33%
same,"TGI, Mean","60 cancer cell lines; mean over panel, five dose",3.39 µM
same,"Growth percent, Range","60 cancer cell lines; range over panel, 10^−5 molar",195.44%
same,GI50,"NCI-H522; Homo sapiens, five dose",1.85 µM
same,Growth percent,NCI-H522; 10^−5 molar,−59.68%
same,TGI,NCI-H522; five dose,3.56 µM
same,GI50,"SK-OV-3; Homo sapiens, five dose",1.68 µM
same,CC50,SK-OV-3; [1],6.8 µM
same,Growth percent,SK-OV-3; 10^−5 molar,76.48%
same,TGI,SK-OV-3; five dose,3.38 µM
same,GI50,"RPMI-8226; Homo sapiens, five dose",1.84 µM
same,Growth percent,RPMI-8226; 10^−5 molar,5.53%
same,TGI,RPMI-8226; five dose,4.21 µM
same,GI50,"K-562; Homo sapiens, K562, five dose",1.73 µM
same,CC50,"K-562; Homo sapiens, K562, five dose, read-out: LC50 (the source's name)",> 100 µM
same,Growth percent,K-562; 10^−5 molar,−66.94%
same,GI50,"MDA-MB-435; Homo sapiens, five dose",1.59 µM
same,CC50,MDA-MB-435; [1],5.62 µM
same,Growth percent,MDA-MB-435; 10^−5 molar,−88.95%
same,TGI,MDA-MB-435; five dose,2.99 µM
same,Growth percent,786-0; 10^−5 molar,−17.60%
same,TGI,786-0; five dose,3.37 µM
same,GI50,"786-0; Homo sapiens, five dose",1.72 µM
same,Growth percent,A498; 10^−5 molar,61.88%
same,TGI,A498; five dose,3.62 µM
same,GI50,"A498; Homo sapiens, five dose",1.27 µM
same,CC50,A498; [1],15 µM
same,GI50,"MDA-MB-231/ATCC; Homo sapiens, five dose",1.36 µM
same,CC50,MDA-MB-231/ATCC; [1],6.02 µM
same,Growth percent,MDA-MB-231/ATCC; 10^−5 molar,−66.53%
same,TGI,MDA-MB-231/ATCC; five dose,2.86 µM
same,GI50,"NCI-H23; Homo sapiens, five dose",1.89 µM
same,Growth percent,NCI-H23; 10^−5 molar,54.26%
same,TGI,NCI-H23; five dose,3.68 µM
same,Growth percent,BT-549; 10^−5 molar,98.48%
same,TGI,BT-549; five dose,3.15 µM
same,GI50,"BT-549; Homo sapiens, five dose",1.67 µM
same,Growth percent,HOP-62; 10^−5 molar,36.97%
same,TGI,HOP-62; five dose,2.89 µM
same,GI50,"HOP-62; Homo sapiens, five dose",1.38 µM
same,Growth percent,DU-145; 10^−5 molar,−71.03%
same,TGI,DU-145; five dose,3.31 µM
same,GI50,"DU-145; Homo sapiens, five dose",1.76 µM
same,CC50,DU-145; [1],6.25 µM
same,GI50,"LOX IMVI; Homo sapiens, five dose",1.8 µM
same,Growth percent,LOX IMVI; 10^−5 molar,−82.79%
same,TGI,LOX IMVI; five dose,3.80 µM
same,GI50,"SNB-75; Homo sapiens, five dose",1.28 µM
same,Growth percent,SNB-75; 10^−5 molar,23.66%
same,TGI,SNB-75; five dose,2.56 µM
same,GI50,"NCI-H460; Homo sapiens, five dose",1.66 µM
same,Growth percent,NCI-H460; 10^−5 molar,−80.98%
same,TGI,NCI-H460; five dose,3.35 µM
same,GI50,"U251; Homo sapiens, U-251, five dose",1.73 µM
same,Growth percent,U251; 10^−5 molar,−66.76%
same,TGI,U251; five dose,3.22 µM
same,GI50,"SF-268; Homo sapiens, five dose",1.67 µM
same,Growth percent,SF-268; 10^−5 molar,17.28%
same,TGI,SF-268; five dose,3.35 µM
same,GI50,"SNB-19; Homo sapiens, five dose",1.64 µM
same,Growth percent,SNB-19; 10^−5 molar,46.07%
same,TGI,SNB-19; five dose,3.26 µM
same,Growth percent,HT29; 10^−5 molar,−83.53%
same,TGI,HT29; five dose,4.00 µM
same,GI50,"HT29; Homo sapiens, HT-29, five dose",2.05 µM
same,GI50,"MCF7; Homo sapiens, five dose",1.05 µM
same,Growth percent,MCF7; 10^−5 molar,−72.49%
same,TGI,MCF7; five dose,2.60 µM
same,Growth percent,A549/ATCC; 10^−5 molar,−64.45%
same,TGI,A549/ATCC; five dose,3.30 µM
same,GI50,"A549/ATCC; Homo sapiens, five dose",1.76 µM
same,GI50,"SK-MEL-5; Homo sapiens, five dose",1.6 µM
same,Growth percent,SK-MEL-5; 10^−5 molar,62.02%
same,TGI,SK-MEL-5; five dose,3.00 µM
same,Growth percent,HL-60(TB),−37.88%
same,GI50,"PC-3; Homo sapiens, five dose",1.51 µM
same,CC50,PC-3; [1],5.66 µM
same,Growth percent,PC-3; 10^−5 molar,−26.98%
same,TGI,PC-3; five dose,2.92 µM
same,Growth percent,CCRF-CEM; 10^−5 molar,−54.78%
same,TGI,CCRF-CEM; five dose,3.80 µM
same,GI50,"CCRF-CEM; Homo sapiens, five dose",1.83 µM
same,GI50,"OVCAR-5; Homo sapiens, five dose",1.63 µM
same,CC50,OVCAR-5; [1],7.53 µM
same,Growth percent,OVCAR-5; 10^−5 molar,−65.05%
same,TGI,OVCAR-5; five dose,3.50 µM
same,GI50,"TK-10; Homo sapiens, five dose",2.09 µM
same,CC50,TK-10; [1],6.69 µM
same,Growth percent,TK-10; 10^−5 molar,−92.61%
same,TGI,TK-10; five dose,3.74 µM
